Legend:
Assay type in all cases: binding
[1] = target: T1, CbuqPBP1 (Cyrtotrachelus buqueti, UniProt A0A1B3IIF7); assay: competitive displacement of 1-NPN fluorescence; conditions: for IC50: read-out: IC50 (μM) / PBP1; for Ki: read-out: Ki (μM) / PBP1
T1 construct: E. coli BL21(DE3), pET-28a(+); His-tag cut with enterokinase; about 400 bp insert, 16 kDa
T1 sequence (A0A1B3IIF7 17-143): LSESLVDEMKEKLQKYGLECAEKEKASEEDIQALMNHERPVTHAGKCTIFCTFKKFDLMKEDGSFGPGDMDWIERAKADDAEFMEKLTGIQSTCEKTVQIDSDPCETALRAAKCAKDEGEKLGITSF
Description: (§1) competitive displacement of 1-NPN fluorescence on CbuqPBP1

[2] = target: T2, CbuqPBP1 (Cyrtotrachelus buqueti, UniProt A0A1B3IIF7, F69A); assay: competitive displacement of 1-NPN fluorescence
T2 construct: E. coli BL21(DE3), pET-28a(+); His-tag cut with enterokinase; about 400 bp insert, 16 kDa
T2 sequence (A0A1B3IIF7 17-143 F69A): T1 sequence (A0A1B3IIF7 17-143)
Description: as §1

[3] = target: T3, CbuqPBP1 (Cyrtotrachelus buqueti, UniProt A0A1B3IIF7, H53A); assay: fluorescence titration, Scatchard plot
T3 construct: E. coli BL21(DE3), pET-28a(+); His-tag cut with enterokinase; about 400 bp insert, 16 kDa
T3 sequence (A0A1B3IIF7 17-143 H53A): T1 sequence (A0A1B3IIF7 17-143)

[4] = target: T1, CbuqPBP1; assay: fluorescence titration, Scatchard plot
[5] = target: T2, CbuqPBP1; assay: fluorescence titration, Scatchard plot

SMILES | IC50 [1] [µM] | Ki [1] [µM] | IC50 [2] [µM] | Ki [2] [µM] | Kd [3] [µM] | Kd [4] [µM] | Kd [5] [µM]
C[C@@H]1CC[C@H]2C(C)(C)[C@H]3C[C@@]12CC[C@@]3(C)O [cedrol] | 30 | 21.9 | – | – | – | – | –
c1ccc2scnc2c1 [benzothiazole] | 13.4 | 9.82 | 10.5 | 7.3 | – | – | –
c1ccc(Nc2cccc3ccccc23)cc1 [1-NPN] | – | – | – | – | 3.35 | 2.73 | 2.26
CCCCOC(=O)c1ccccc1C(=O)OCCCC [dibutyl phthalate] | – | – | 20 | 13.9 | – | – | –

Source: PMC6796961, “Bioinformatic and biochemical analysis of the key binding sites of the pheromone binding protein of Cyrtotrachelus buqueti Guerin-Meneville (Coleoptera: Curculionidea)” (PeerJ, 2019)
